Measured values from patent US20050101783A1, “N-(heterocycle-methyl)alkylamine derivative, process for producing the same, and bactericide” (priority 2000, published 2005).

Columns and labels:
Candida albicans = test: Antibacterial test to Candida albicans (96-hole plate, IC80); assay type: cell-based; settings: cultivated at 35° C. for 72 hours, absorbance at 540 nm
Protocol: (Antibacterial Test to Candida albicans) In the test examples, a test was performed on the antibacterial of the compounds according to the present invention to Candida albicans in the methods later described. The culture dilution train containing each compound was prepared by using a 96-hole flat-bottomed plate, and the inoculation mold solution controlled at 1 to 5×10^3 cell/ml beforehand of 10 μl was added to each hole on the plate. After the inoculation, the molds were cultivated at 35° C. for 72 hours, and the propagation of the mold was evaluated by measuring the absorbance at 540 nm. With such a test, the propagation of the mold in this case was compared with the propagation of the mold in the chemical-free test area to find the concentration of a compound where the propagation rate of the mold is suppressed by 80% as IC 80 (80% growth inhibition concentration).

Aspergillus fumigatus = test: Antibacterial test to Aspergillus fumigatus (96-hole plate, IC80); assay type: cell-based; settings: YNB culture with 0.22% low melting point-agarose, 1×10^4 cell/ml, 25° C., 72 hours, absorbance at 620 nm
Protocol: (Antibacterial Test to Aspergillus fumigatus)
In the test example, a test was performed on the antibacterial of the compounds according to the present invention to Aspergillus fumigatus in the method later described.
Aspergillus fumigatus was cultivated in Sabouraud's agar at 37° C. for 3 days, after the spores to be used for the test were formed, the spore suspension was prepared. The spore suspension was suspended in YNB culture to which a 0.22% low melting point-agarose was added so as to allow the final concentration to be 1×10^4 cell/ml, and the solution was poured into each hole on a 96-hole flat-bottomed plate. Next, the dilution trains using each of the compounds according to the present invention were added, the solution was cultivated at 25° C. for 72 hours, and the propagation rate of the mold was evaluated by measuring the absorbance at 620 nm. With such a test, the propagation rate of the mold in the chemical-free test area was compared with this case to find the concentration of the compound where the propagation rate of the mold is suppressed by 80% as IC 80 (80% growth inhibition concentration).

[1] = system: Erysiphe graminis f. sp tritici; test: Preventive effect test of wheat powdery mildew (wettable powder sprayed on potted wheat, preventive value); assay type: in vivo; settings: wettable powder suspended at 250 mg/l, sprayed on potted wheat at 100 l/10 a; morbidity investigated 9th to 14th day after inoculation
Protocol: (Preventive Effect Test of Erysiphe graminis f. sp […])
The wettable powders obtained by using each compound were diluted with water and were suspended at a predetermined concentration (250 mg/l) and the solution was sprayed over the first to second leaf stage-wheat (variety. Agriculture and Forestry No. 64) cultivated by using a square plastic pot (size: 6.4 cm×6.4 cm) at a rate of 100 1/10 a (are).
After the sprayed leaves were air-dried, the suspension of the spore of Erysiphe graminis f. sp tritici germ sampled from the contracted leaves were sprayed and inoculated over the sprayed leaf after air-dried, the leaves were kept at 20 to 24° C. under a high-humidity condition for 24 hours, then, the leaves were subjected to still standing in a greenhouse (temperature: 20 to 24° C. and relative humidity: 20 to 70 RH). The morbidity rate was investigated based on the following investigation standard on 9th to 14th day after the inoculation and the preventive value was calculated according to the following formula 1.

cucumber gray mold = test: Preventive effect test of cucumber gray mold (wettable powder sprayed on potted cucumber, preventive value); assay type: in vivo; settings: wettable powder suspended at 250 mg/l, sprayed on potted cucumber at 100 l/10 a; morbidity investigated 4th to 6th day after inoculation
Protocol: (Preventive Effect Test of Cucumber Gray Mold)
The wettable powders obtained by using each compound were diluted with water and were suspended at a predetermined concentration (250 mg/l) and the solution was sprayed over the first to second leaf stage-cucumber (variety: “Sagamihanpakufushinari”) cultivated by using a square plastic pot (size: 6.4 cm×6.4 cm) at a rate of 100 1/10 a.
After the sprayed leaves were air-dried, a paper disk where the solution of the spore of the gray mold suspended with water was impregnated was put on the aforementioned sprayed leaves, and the leaves were contracted in a glass greenhouse (temperature: 20 to 24° C. and relative humidity: 20 to 70 RH). The morbidity rate was investigated based on the following investigation standard on 4th to 6th day after the inoculation and the preventive value was calculated according to the following formula 2.

cucumber powdery mildew = test: Preventive effect of cucumber powdery mildew (wettable powder sprayed on potted cucumber, preventive value); assay type: in vivo; settings: wettable powder suspended at 100 mg/l, sprayed on potted cucumber at 100 l/10 a; morbidity investigated 9th to 14th day after inoculation
Protocol: (Preventive Effect of Cucumber Powdery Mildew)
The wettable powders obtained by using each compound were diluted with water and were suspended at a predetermined concentration (100 mg/l) and the solution was sprayed over the first to second leaf stage-cucumber (variety: “Sagamihanpakufushinari”) cultivated by using a square plastic pot (size: 6.4 cm×6.4 cm) at a rate of 100 1/10 a.
After the sprayed leaves were air-dried, the spore was inoculated over the aforementioned air-dried leaves from the contracted leaves with a brush, and the contraction was performed in a glass greenhouse (temperature: 20 to 24° C. and relative humidity: 20 to 70 RH). The morbidity rate was investigated based on the same investigation standard as that in the preventive effect test of the cucumber gray mold on 9th to 14th day after the inoculation, and the preventive value was calculated according to the aforementioned formula 2.

Botrytis cinerea = test: Antibacterial test to various phytopathogen, PDA plate culture, suppression of mold elongation; assay type: cell-based; settings: Botrytis cinerea, final concentration 100 mg/l, 1 to 3 days, read-out: Inhibition Rate of Growth (suppression rate of the mold elongation, 5-step grade) B.c.
Protocol: (§1) (Antibacterial Test to Various Phytopathogen)
(§2) In the test examples, a test was performed on the antibacterial of the compounds according to the present invention to various phytopathogenic molds in the methods later described.
(§3) The compounds of 10 mg were each weighed and they were each dissolved in dimethylsulfoxide of 1 ml. The solution of 0.6 ml was added to PDA culture medium (potato-dextrose-agar culture medium) of 60 ml at about 60° C, the solutions were well mixed in an Erlenmeyer flask of 100 ml, and the solution was poured into a Schale and was solidified therein to prepare a plate culture containing the compound according to the present invention of final concentration of 100 mg/l.
(§4) On the other hand, the sample molds on the plate cultured beforehand were punched by a cork borer of diameter of 4 mm, and they were inoculated on the plate culture containing the aforementioned chemical material. After the inoculation, the molds were inoculated at the appropriate growth temperatures of each mold (for the appropriate growth temperatures, for example, the Reference, LIST OF CULTURE 1996 MICROORGANISM 10th edition published by Institute for Fermentation can be referred to.) for 1 to 3 days, the growth rates of the molds were evaluated by measuring the diameter of a colony. The growth rate of the mold thus obtained on the plate culture containing the chemical material is compared with the growth rate of the mold in the non-addition area of the chemical material to find the suppression rate of the mold elongation by the following formula 3. R=100 (dc−dt)/dc (Formula 3) [wherein, R is the suppression rate of the mold elongation (%), dc is the diameter of a colony on an untreated plate and dt is the diameter of a colony on a chemical-treated plate, respectively.]
(§5) • 5: Mold whose suppression rate of the mold elongation is • 90% or higher • 4: Mold whose suppression rate of the mold elongation is less than 90% and 70% or higher • 3: Mold whose suppression rate of the mold elongation is less than 70% and 40% or higher • 2: Mold whose suppression rate of the mold elongation is less than 40% and 20% or higher • 1: Mold whose suppression rate of the mold elongation is less than 20%
(§6) In addition, the meanings of the abbreviated letters in Table 22 are as follows: • B. c.; Botrytis cinerea • P. h.; Pseudocercosporella herpotrichoides • M. n.; Microdohium nivale • L. n.; Leptosphaeria nodorum

Leptosphaeria nodorum = test: as above; assay type: cell-based; settings: Parastagonospora nodorum, final concentration 100 mg/l, 1 to 3 days, read-out: Inhibition Rate of Growth (suppression rate of the mold elongation, 5-step grade) L.n.
Protocol: as §1, §2, §3, §4, §5, §6

Microdohium nivale = test: as above; assay type: cell-based; settings: final concentration 100 mg/l, 1 to 3 days, read-out: Inhibition Rate of Growth (suppression rate of the mold elongation, 5-step grade) M.n.
Protocol: as §1, §2, §3, §4, §5, §6

[2] = system: Pseudocercosporella herpotrichoides; test: as above; assay type: cell-based; settings: Oculimacula yallundae, final concentration 100 mg/l, 1 to 3 days, read-out: Inhibition Rate of Growth (suppression rate of the mold elongation, 5-step grade) P.h.
Protocol: as §1, §2, §3, §4, §5, §6

Venturia inaequalis = test: as above; assay type: cell-based; settings: Venturia inaequalis, final concentration 100 mg/l, 1 to 3 days, read-out: Inhibition Rate of Growth (suppression rate of the mold elongation, 5-step grade) V.i.
Protocol: as §1, §2, §3, §4, §5
V. i.: Venturia inaequalis

| SMILES | 80% Growth Inhibition Concentration (IC80) (Candida albicans) | 80% Growth Inhibition Concentration (IC80) (Aspergillus fumigatus) | further results |
| --- | --- | --- | --- |
| CC(C)(CNCc1cnccn1)Cc1ccc(C(C)(C)C)cc1 [Compound I-4, N-[3-(4-t-butylphenyl)-2,2-dimethylpropyl]-2-pyrazylmethylamine] | 75 µg/mL | 75 µg/mL |  |
| Cn1cc(CNCC(C)(C)Cc2ccc(C(C)(C)C)cc2)cn1 [Compound I-6] | 18 µg/mL | 9 µg/mL |  |
| CC(C)(CNCc1ccncn1)Cc1ccc(C(C)(C)C)cc1 [Compound I-10] | 75 µg/mL | 38 µg/mL |  |
| CC(C)(CNCc1c[nH]cn1)Cc1ccc(C(C)(C)C)cc1 [Compound I-11] | 150 µg/mL |  |  |
| CC(C)(CNCc1c[nH]cn1)Cc1ccc(F)cc1F [Compound I-12] | 18 µg/mL |  |  |
| CC(C)(CNCc1ccc(Cl)nc1)Cc1ccc(OC(F)(F)F)cc1 [Compound I-45, 6-chloro-N-[2,2-dimethyl-3-(4-trifluoromethoxyphenyl)propyl]-3-pyridylmethylamine] |  |  | Preventive Value (%) [1]: 100%; Preventive Value (%) (cucumber gray mold): 100%; Preventive Value (%) (cucumber powdery mildew): 100%; inhibition at 100 µg/mL (Botrytis cinerea): ≥ 90%; inhibition at 100 µg/mL (Leptosphaeria nodorum): ≥ 90%; inhibition at 100 µg/mL (Microdohium nivale): ≥ 90%; inhibition at 100 µg/mL [2]: ≥ 90%; inhibition at 100 µg/mL (Venturia inaequalis): ≥ 90% |
